Source: ChEMBL document CHEMBL5532656, “Novel ligustilide derivatives target quorum sensing system LasR/LasB and relieve inflammatory response against Pseudomonas aeruginosa infection” (Eur J Med Chem, 2024)
pIC50: −log10 of the molar value. Active and inactive are the calls of the source. The rule behind the calls is not given here.

What was measured:
[1] = tested on: RAW264.7; experiment: Cytotoxicity against mouse RAW264.7 cells assessed as reduction in cell viability at 50 uM measured after 24 hrs by MTT assay; format: functional, cell-based
[2] = Cytotoxicity against African green monkey Vero cells assessed as reduction in cell viability at 50 uM measured after 24 hrs by MTT assay; format: toxicity, cell-based; conditions: chlorocebus sabaeus
[3] = tested on: Erythrocyte; experiment: Hemolytic activity in human erythrocytes assessed as hemolysis at 0.625 to 10 micromol/L measured after 4 hrs by microplate reader method; format: toxicity, cell-based; conditions: dose 0.625-10 µmol/L
[4] = tested on: RAW264.7; experiment: Antiinflammatory activity in LPS-induced mouse RAW264.7 cells assessed as decrease in COX-2 expression level pretreated for 3 hrs followed by LPS stimulation and measured after 24 hrs by Western blot analysis; format: functional, cell-based; conditions: dose 1.25-10 µmol/L, time 27.0 hrs
[5] = tested on: RAW264.7; experiment: Antiinflammatory activity in mouse RAW264.7 cells assessed as reduction in TNF alpha mRNA expression at 2.5 to 10 uM by RT-PCR analysis; format: functional, cell-based; conditions: dose 2.5-10 µM
[6] = tested on: RAW264.7; experiment: Antiinflammatory activity in mouse RAW264.7 cells assessed as reduction in IL-6 mRNA expression at 2.5 to 10 uM by RT-PCR analysis; format: functional, cell-based; conditions: dose 2.5-10 µM
[7] = tested on: RAW264.7; experiment: Antiinflammatory activity in LPS-induced mouse RAW264.7 cells assessed as inhibition of NF-kappaB p65 expression pretreated for 3 hrs followed by LPS stimulation and measured after 24 hrs by Western blot analysis; format: functional, cell-based; conditions: dose 1.25-10 µmol/L, time 27.0 hrs
[8] = tested on: RAW264.7; experiment: Inhibition of LPS-induced ROS production in mouse RAW264.7 cells by DCFH-DA staining based fluorescence method; format: functional, cell-based
[9] = tested on: RAW264.7; experiment: Inhibition of JNK signaling in mouse RAW264.7 cells assessed as reduction in LPS induced JNK phosphorylation by Western blot analysis; format: cell-based
[10] = tested on: Mus musculus; experiment: Anti-inflammatory activity against LPS-induced acute lung injury mouse model assessed as reduction in myeloperoxidase activity at 1 to 2 mg/kg, po preincubated for 4 hrs followed by LPS stimulation and measured after 6 hrs by spectrophotometer analysis; format: functional, organism-based; conditions: dose 1-2 mg/kg, time 10.0 hrs
[11] = tested on: Mus musculus; experiment: Anti-inflammatory activity against LPS-induced acute lung injury mouse model assessed as downregulation of TNF-alpha level administered as po dose preincubated for 4 hrs followed by LPS stimulation and measured after 6 hrs by ELISA method; format: functional, organism-based; conditions: dose 1-2 mg/kg, time 10.0 hrs
[12] = tested on: Mus musculus; experiment: Anti-inflammatory activity against LPS-induced acute lung injury mouse model assessed as reduction in COX-2 mRNA expression at 1 to 2 mg/kg, po preincubated for 4 hrs followed by LPS stimulation and measured after 6 hrs; format: functional, organism-based; conditions: dose 1-2 mg/kg, time 10.0 hrs
[13] = tested on: Mus musculus; experiment: Anti-inflammatory activity against LPS-induced acute lung injury mouse model assessed as reduction in iNOS mRNA expression at 1 to 2 mg/kg, po preincubated for 4 hrs followed by LPS stimulation and measured after 6 hrs; format: functional, organism-based; conditions: dose 1-2 mg/kg, time 10.0 hrs
[14] = tested on: Mus musculus; experiment: Protection against LPS-induced acute lung injury mouse model assessed as inhibition of edema at 1 to 2 mg/kg, po preincubated for 4 hrs followed by LPS stimulation and measured after 6 hrs by H and E staining based analysis; format: functional, organism-based; conditions: dose 1-2 mg/kg, time 10.0 hrs
[15] = Toxicity in BALB/c mouse assessed as effect on liver at 2 to 4 mg/kg, PO measured after 7 days by H and E staining based analysis; format: organism-based; conditions: in vivo, 168 h, dose 2-4 mg/kg, time 7 day

pIC50 [8]: 5.84
Compound: CCCCC1(O)C2=C(C=CCC2)C(=O)N1Cc1ccc(C(F)(F)F)cc1 (stereo not given)
Activity [1]: Active
Activity [2]: Toxic
Activity [3]: Toxic
Activity [4]: Dose-Dependent Effect
Activity [5]: Active
Activity [6]: Active
Activity [7]: Dose-Dependent Effect
inhibition [9]: Active
Activity [10]: Active
Activity [11]: Dose-Dependent Effect
Activity [12]: Active
Activity [13]: Active
Activity [14]: Active
Activity [15]: Non-Toxic
